According to patent publication US8435986B2, “Bicyclic traizole derivatives for treating of tumors” (Merck Patent Gesellschaft mit beschrankter Haftung, priority 2008, dated 2013):
Counter-ions that a name gives are not always drawn.

Assays:
Met kinase [1] = biological target: T1, Met kinase (Homo sapiens, UniProt P08581); assay: Met kinase inhibition, cellular assay; type: cell-based; conditions: read-out: Cellular assay IC50 (cell)
Target sequence in this assay (P08581 25-1390): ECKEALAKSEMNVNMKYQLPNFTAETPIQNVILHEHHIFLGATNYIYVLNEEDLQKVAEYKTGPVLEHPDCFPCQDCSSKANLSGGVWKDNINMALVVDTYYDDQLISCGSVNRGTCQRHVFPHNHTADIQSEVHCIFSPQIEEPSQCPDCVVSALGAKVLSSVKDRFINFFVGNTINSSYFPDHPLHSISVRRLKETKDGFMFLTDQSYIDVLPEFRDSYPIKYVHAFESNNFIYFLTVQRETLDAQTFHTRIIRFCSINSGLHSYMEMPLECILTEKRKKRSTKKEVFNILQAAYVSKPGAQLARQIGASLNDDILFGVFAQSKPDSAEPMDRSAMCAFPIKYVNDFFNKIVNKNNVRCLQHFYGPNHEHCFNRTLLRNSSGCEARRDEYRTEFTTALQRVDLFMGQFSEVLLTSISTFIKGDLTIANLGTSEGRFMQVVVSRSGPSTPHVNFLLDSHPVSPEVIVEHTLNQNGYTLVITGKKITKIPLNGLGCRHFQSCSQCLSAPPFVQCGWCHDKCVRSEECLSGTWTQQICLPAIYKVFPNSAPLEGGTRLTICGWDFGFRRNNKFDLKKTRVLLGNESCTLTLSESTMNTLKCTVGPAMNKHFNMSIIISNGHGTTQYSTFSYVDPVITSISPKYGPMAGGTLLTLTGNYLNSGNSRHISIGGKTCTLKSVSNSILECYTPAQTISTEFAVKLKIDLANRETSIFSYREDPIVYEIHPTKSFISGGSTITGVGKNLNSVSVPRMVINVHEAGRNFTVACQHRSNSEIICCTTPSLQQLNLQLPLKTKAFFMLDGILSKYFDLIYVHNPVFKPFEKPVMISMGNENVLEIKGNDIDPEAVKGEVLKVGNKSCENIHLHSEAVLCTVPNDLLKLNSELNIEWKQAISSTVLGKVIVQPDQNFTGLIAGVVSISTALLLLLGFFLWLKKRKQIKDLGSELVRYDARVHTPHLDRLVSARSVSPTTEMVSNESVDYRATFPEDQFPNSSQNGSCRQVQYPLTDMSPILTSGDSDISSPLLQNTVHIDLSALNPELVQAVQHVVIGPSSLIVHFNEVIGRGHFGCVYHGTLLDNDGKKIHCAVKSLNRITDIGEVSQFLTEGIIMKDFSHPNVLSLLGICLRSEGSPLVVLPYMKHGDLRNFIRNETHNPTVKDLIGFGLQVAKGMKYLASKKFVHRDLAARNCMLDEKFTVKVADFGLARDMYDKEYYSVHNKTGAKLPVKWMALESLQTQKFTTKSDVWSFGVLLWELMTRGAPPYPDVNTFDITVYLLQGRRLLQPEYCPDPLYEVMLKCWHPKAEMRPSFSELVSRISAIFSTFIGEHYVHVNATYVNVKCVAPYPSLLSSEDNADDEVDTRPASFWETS

Met kinase [2] = biological target: T1, Met kinase; assay: Met kinase inhibition, biochemical assay (flashplate method); set-up: 6His (N); purchased Upstate 14-526; host or cells: Sf21 insect cells (S. frugiperda), baculovirus; conditions: read-out: Biochemical assay IC50 (enzyme)
Text: Measurement of Met Kinase Activity
According to the manufacturer's data (Met, active, Upstate, catalogue No. 14-526), Met kinase is expressed for the purposes of protein production in insect cells (Sf21; S. frugiperda) and subsequent affinity-chromatographic purification as “N-terminal 6His-tagged” recombinant human protein in a baculovirus expression vector.
Flashplate Method (Met Kinase)
The test plates used are 96-well Flashplate® microtitre plates from Perkin Elmer (Cat. No. SMP200). The components of the kinase reaction described below are pipetted into the assay plate. The Met kinase and the substrate poly Ala-Glu-Lys-Tyr, (pAGLT, 6:2:5:1), are incubated for 3 hrs at room temperature with radioactively labelled ^33P-ATP in the presence and absence of test substances in a total volume of 100 μl. The reaction is terminated using 150 μl of a 60 mM EDTA solution. After incubation for a further 30 min at room temperature, the supernatants are filtered off with suction, and the wells are washed three times with 200 μl of 0.9% NaCl solution each time. The measurement of the bound radioactivity is carried out by means of a scintillation measuring instrument (Topcount NXT, Perkin-Elmer).
The full value used is the inhibitor-free kinase reaction. This should be approximately in the range 6000-9000 cpm. The pharmacological zero value used is staurosporin in a final concentration of 0.1 mM. The inhibitory values (IC50) are determined using the RS1_MTS program.
Kinase reaction conditions per well:
10 μl of substance to be tested in assay buffer with 10% of DMSO
10 μl of ATP (final concentration 1 μM cold, 0.35 μCi of ^33P-ATP)
50 μl of Met kinase/substrate mixture in assay buffer; • (10 ng of enzyme/well, 50 ng of pAGLT/well) • Solutions used: • Assay buffer: • 50 mM HEPES • 3 mM magnesium chloride • 3 μM sodium orthovanadate • 3 mM manganese(II) chloride • 1 mM dithiothreitol (DTT) • pH=7.5 (to be set using sodium hydroxide) • Stop solution: • 60 mM Titriplex III (EDTA) • ^33P-ATP: Perkin-Elmer; • Met kinase: Upstate, Cat. No. 14-526, Stock 1 μg/10 μl; spec. activity 954 U/mg; • Poly-Ala-Glu-Lys-Tyr, 6:2:5:1: Sigma Cat. No. P1152 In-Vivo Tests
Target sequence in this assay (P08581 974-1390 limits assumed): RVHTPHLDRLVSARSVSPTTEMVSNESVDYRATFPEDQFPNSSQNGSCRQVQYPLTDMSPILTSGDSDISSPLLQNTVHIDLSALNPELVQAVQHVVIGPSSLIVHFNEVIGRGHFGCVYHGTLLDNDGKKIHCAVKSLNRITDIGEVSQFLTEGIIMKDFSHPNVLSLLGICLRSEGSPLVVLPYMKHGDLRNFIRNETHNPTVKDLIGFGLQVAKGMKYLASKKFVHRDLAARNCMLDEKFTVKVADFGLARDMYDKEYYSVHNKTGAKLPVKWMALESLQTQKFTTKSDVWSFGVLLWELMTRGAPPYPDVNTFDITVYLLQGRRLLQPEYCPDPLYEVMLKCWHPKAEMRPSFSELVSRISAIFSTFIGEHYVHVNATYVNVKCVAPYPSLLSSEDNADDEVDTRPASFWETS

Structure (SMILES) | IC50 (Met kinase [1]) | IC50 (Met kinase [2])
Brc1cnc2nnn(Cc3cccc(-c4ncc(OCCN5CCOCC5)cn4)c3)c2n1 [Compound A1, 6-bromo-1-{3-[5-(2-morpholin-4-ylethoxy)pyrimidin-2-yl]benzyl}-1H-1,2,3-triazolo[4,5-b]-pyrazine] | 1 to 100 nM | 
Cn1cc(-c2cnc3nnn(Cc4cccc(-c5ncc(OCCN6CCOCC6)cn5)c4)c3n2)cn1 [Compound A2, 6-(1-methyl-1H-pyrazol-4-yl)-1-{3-[5-(2-morpholin-4-ylethoxy)-pyrimidin-2-yl]benzyl}-1H-1,2,3-triazolo[4,5-b]pyrazine] | 1 to 100 nM | 1 to 100 nM
c1cc(Cn2nnc3ccccc32)cc(-c2ncc(OCCN3CCOCC3)cn2)c1 [Compound A3, 1-{3-[5-(2-morpholin-4-ylethoxy)pyrimidin-2-yl]benzyl}-1H-benzotriazole] | 100 to 10000 nM | 1 to 100 nM
Cn1cc(-c2cnc3nnn(Cc4cccc(-c5ncc(OC6CCNCC6)cn5)c4)c3n2)cn1 [Compound A6] | 1 to 100 nM | 1 to 100 nM
Cn1cc(-c2cnc3nnn(Cc4cccc(-c5ncc(OCC6CCNCC6)cn5)c4)c3n2)cn1 [Compound A9] | 1 to 100 nM | 1 to 100 nM
Cn1cc(-c2cnc3nnn(Cc4cccc(-c5ncc(-c6cnn(CCN7CCCC7)c6)cn5)c4)c3n2)cn1 [Compound A24, 6-(1-methyl-1H-pyrazol-4-yl)-1-(3-{5-[1-(2-pyrrolidin-1-yl-ethyl)-1H-pyrazol-4-yl]pyrimidin-2-yl}benzyl)-1H-1,2,3-triazolo[4,5-b]-pyrazine hydrochloride] | 1 to 100 nM | 1 to 100 nM
N#Cc1cccc(-c2cnc3nnn(Cc4cccc(-c5ncc(OC6CCNCC6)cn5)c4)c3n2)c1 [Compound A27] | 1 to 100 nM | 1 to 100 nM
N#Cc1cccc(-c2cnc3nnn(Cc4cccc(-c5ncc(OCC6CCNCC6)cn5)c4)c3n2)c1 [Compound A30] | 1 to 100 nM | 1 to 100 nM
Fc1ccc2nnn(Cc3cccc(-c4ncc(OCCN5CCOCC5)cn4)c3)c2c1F [Compound A46] | 1 to 100 nM | 1 to 100 nM
Clc1ccc2nnn(Cc3cccc(-c4ncc(OCCN5CCOCC5)cn4)c3)c2n1 [Compound A48, 5-chloro-3-{3-[5-(2-morpholin-4-ylethoxy)pyrimidin-2-yl]-benzyl}-3H-1,2,3-triazolo[4,5-b]pyridine] | 100 to 10000 nM | 1 to 100 nM
Brc1cnc(-c2cccc(Cn3nnc4ncc(Br)nc43)c2)nc1 [Compound B1, 6-bromo-1-[3-(5-bromopyrimidin-2-yl)benzyl]-1H-1,2,3-triazolo[4,5-b]pyrazine] | 100 to 10000 nM | 1 to 100 nM
Cn1cc(Oc2cnc3nnn(Cc4cccc(-c5ncc(Br)cn5)c4)c3n2)cn1 [Compound B5, 1-[3-(5-bromopyrimidin-2-yl)benzyl]-6-(1-methyl-1H-pyrazol-4-yloxy)-1H-1,2,3-triazolo[4,5-b]pyrazine] | 1 to 100 nM | 1 to 100 nM
N#Cc1cccc(Oc2cnc3nnn(Cc4cccc(-c5ncc(Br)cn5)c4)c3n2)c1 [Compound B6, 3-{3-[3-(5-bromopyrimidin-2-yl)benzyl]-3H-1,2,3-triazolo[4,5-b]pyrazin-5-yloxy}benzonitrile] | 1 to 100 nM | 1 to 100 nM
Fc1cc(F)cc(Oc2cnc3nnn(Cc4cccc(-c5ncc(Br)cn5)c4)c3n2)c1 [Compound B7, 1-[3-(5-bromopyrimidin-2-yl)benzyl]-6-(3,5-difluorophenoxy)-1H-1,2,3-triazolo[4,5-b]pyrazine] | 1 to 100 nM | 1 to 100 nM
Oc1cnc(-c2cccc(Cn3nnc4ncc(-c5cc(F)cc(F)c5)nc43)c2)nc1 [Compound B10, 2-{3-[6-(3,5-difluorophenyl)-1,2,3-triazolo[4,5-b]pyrazin-1-ylmethyl]phenyl}-pyrimidin-5-ol] | 1 to 100 nM | 1 to 100 nM
CN(C)CCOc1cnc(-c2cccc(Cn3nnc4ncc(-c5cnn(C)c5)nc43)c2)nc1 [Compound B14, dimethyl-[2(2-{3-[6-(1-methyl-1H-pyrazol-4-yl)-1,2,3-triazolo[4,5-b]pyrazin-1-ylmethyl]phenyl}pyrimidin-5-yloxy)ethyl]amine hydrochloride] | 1 to 100 nM | 1 to 100 nM

Structure (SMILES) | IC50 (Met kinase [1]) | IC50 (Met kinase [2])
Cn1cc(-c2cnc3nnn(Cc4cccc(-c5ncc(OCCCO)cn5)c4)c3n2)cn1 [Compound B15] | 1 to 100 nM | 1 to 100 nM
COCCOc1cnc(-c2cccc(Cn3nnc4ncc(-c5cnn(C)c5)nc43)c2)nc1 [Compound B16] | 1 to 100 nM | 1 to 100 nM
CN1CCN(CCOc2cnc(-c3cccc(Cn4nnc5ncc(-c6cnn(C)c6)nc54)c3)nc2)CC1 [Compound B17] | 1 to 100 nM | 1 to 100 nM
Cn1cc(-c2cnc3nnn(Cc4cccc(-c5ncc(OCCCN6CCOCC6)cn5)c4)c3n2)cn1 [Compound B18] | 1 to 100 nM | 1 to 100 nM
CN1CCN(CCOc2cnc(-c3cccc(Cn4nnc5ncc(-c6cnn(C)c6)nc54)c3)nc2)CC1=O [Compound B19] | 1 to 100 nM | 1 to 100 nM
Cn1cc(-c2cnc3nnn(Cc4cccc(-c5ncc(OCC6CNCCO6)cn5)c4)c3n2)cn1 (stereo not shown) [Compound B20] | 1 to 100 nM | 1 to 100 nM
N#Cc1cccc(-c2cnc3nnn(Cc4cccc(-c5ncc(-c6cnn(CCN7CCCC7)c6)cn5)c4)c3n2)c1 [Compound B21] | 1 to 100 nM | 1 to 100 nM
N#Cc1cccc(-c2cnc3nnn(Cc4cccc(-c5ncc(OCCN6CCNCC6)cn5)c4)c3n2)c1 [Compound B22] | 1 to 100 nM | 1 to 100 nM
Fc1cc(F)cc(-c2cnc3nnn(Cc4cccc(-c5ncc(OCCN6CCNCC6)cn5)c4)c3n2)c1 [Compound B23] | 1 to 100 nM | 1 to 100 nM
Fc1cc(F)cc(-c2cnc3nnn(Cc4cccc(-c5ncc(OCC6CCNCC6)cn5)c4)c3n2)c1 [Compound B24] | 1 to 100 nM | 1 to 100 nM
COCCn1cc(-c2cnc3nnn(Cc4cccc(-c5ncc(OCCN6CCOCC6)cn5)c4)c3n2)cn1 [Compound B33] | 1 to 100 nM | 1 to 100 nM
OCCn1cc(-c2cnc3nnn(Cc4cccc(-c5ncc(OCCN6CCOCC6)cn5)c4)c3n2)cn1 [Compound B34] | 1 to 100 nM | 1 to 100 nM
Clc1ccc2c(c1)nnn2Cc1cccc(-c2ncc(OCCN3CCOCC3)cn2)c1 [Compound B35, 5-Chloro-1-{3-[5-(2-morpholin-4-ylethoxy)pyrimidin-2-yl]benzyl}-1H-benzotriazole] | > 10000 nM | 100 to 10000 nM
O=[N+]([O-])c1ccc(Br)cc1NCc1cccc(-c2ncc(OCCN3CCOCC3)cn2)c1 [Compound B36, (5-bromo-2-nitrophenyl)-{3-[5-(2-morpholin-4-ylethoxy)-pyrimidin-2-yl]benzyl}amine] | 100 to 10000 nM | 1 to 100 nM
COc1ccc2nnn(Cc3cccc(-c4ncc(OCCCN(C)C)cn4)c3)c2n1 [Compound B37] | 1 to 100 nM | 1 to 100 nM
